Compound	melting point [°C]
COc1cc(Nc2c(C#N)cnc3cc(-c4ccc(C(N)=O)cc4)sc23)c(Cl)cc1Cl	> 300
O=C(Nc1ccc(-n2nc(C(F)(F)F)cc2C(F)(F)F)cn1)c1ccccc1F	153 to 155
CC(=O)Nc1cc(F)c([N+](=O)[O-])cc1F	188 to 189
Oc1ccc(Br)cc1C(O)c1ccc2ccccc2c1 (stereo unspecified)	115 to 117
CCOCC(=O)c1nc2c(Cl)cc(F)c(-n3c(=O)cc(C(F)(F)F)n(C)c3=O)c2o1	56 to 58
CCCCCC#CCC(CC#CCCCCC)(C(=O)NO)S(=O)(=O)c1ccc(OC)cc1	83 to 84
NCC(=O)N(Nc1nncc(-c2ccccc2)n1)C(=O)OCc1ccccc1	166 to 167
CC1(C)OOC23CCCCC2CC(=O)OC3O1 (stereo unspecified)	106 to 107
N[C@@H](Cc1ccc(N(CCCl)CCCl)cc1)C(=O)N[C@@H](Cc1cccc(C2CCCC2)c1)C(=O)O	80 to 90
Fc1ccc(CN2CC=C(c3cc4ccccc4s3)CC2)cc1	142 to 144
CC(CF)(CF)C(O)C(Oc1cccc(C(F)(F)F)c1)n1ccnc1 (stereo unspecified)	107 to 120
C#CCN(Cc1cn(C(C)(C)C)nn1)Cc1cn(C(C)(C)C)nn1	126
CCOC(=O)Cc1ccc(NC(=O)C(COc2cccnc2)NS(=O)(=O)c2ccc(F)cc2)cc1 (racemic)	150 to 152
Cc1ccc(S(=O)(=O)NC(=O)CC(=O)N2CCCC2C(=O)N2CCN(C3(N4CCCC4)N=CC=C(N4CCCC4)N3)CC2)cc1 (single isomer, unassigned; (-))	170
Cn1cc(C2=C(c3cn(C)c4cc(CC#N)ccc34)C(=O)NC2=O)c2ccccc21	225 to 226
CCc1c(-c2cnccn2)ssc1=S	121
COc1ccc(C2CNCc3cc(N)ccc32)cc1OC (stereo unspecified)	157 to 159
CCCCOCCOc1ccc(-c2ccc3c(c2)C=C(C(=O)Nc2ccc(CSc4nnc(C)o4)cc2)CCN3CC(C)C)cc1	107 to 109
Cc1cc(-c2cc(C(F)(F)F)n3ncc(C(=O)Nc4cccc(S(C)(=O)=O)c4)c3n2)ccc1C(F)(F)F	233
COc1ccc(CN(C)CCc2ccc(NC(=O)c3cccc4c(=O)c5cccc(C)c5[nH]c34)c(C)c2)cc1OC	160 to 161
COc1cc(OC(F)F)nc(N)n1	106 to 107
COC(=O)C(Cc1ccc(OCCc2nc(-c3ccccc3)oc2C)cc1)C(=O)NC(N)=O (stereo unspecified)	74.6 to 75.6
CCCC(CCC)C(=O)NCC(=O)NCCCCCNC(=O)n1cc(F)c(=O)[nH]c1=O	117 to 118

Further lines, results first:

melting point [°C]	Compound
291 to 293	O=C(O)/C=C/n1cnc2ccc(C3CC3)cc2c1=O
159 to 161	CC(C)CCN1C(=O)C(NC(=O)Nc2ccccc2)C(=O)N(CCN(C)C)c2ccccc21 (stereo unspecified)
155 to 156	CC(C)Oc1ccc2c(Cl)nc(C(=O)NCCO)c(O)c2c1
248	N#Cc1cccc(C2C3=C(CCS3)NC3=C2SCC3)c1
166 to 167	CCOc1c(C(=O)O)oc2c3cc(OC)ccc3n(-c3ccccc3)c12
200 to 201	O=C(Nc1ccccc1)C1=C(N2CCCC2)COC1=O
263 to 265	CC(=O)NC1CCN(c2ncc3ncnc(Nc4ccc(F)c(Cl)c4)c3n2)CC1
169 to 172	O=C(/C=C/c1ccccc1)OCCOC(=O)NC1(C(=O)O)CC1
265 to 267	NC(=O)c1nn(-c2ccc3c(c2)OCO3)c2c1CCc1ccc(NC(=O)c3cccnc3N)cc1-2
202 to 204	CCCc1nn(C)c2c(=O)[nH]c(Cc3ccccc3NS(=O)(=O)CCCN(C)C)nc12
193 to 196	O=C1CC(c2cccc3ccccc23)c2ccc(O)cc2O1 (stereo unspecified)
138	Cc1ccccc1Cn1[nH]c(N)cc1=O
195 to 197	COc1cc(C(=O)OC(C)(C)C)ccc1Cn1cc(CC(C)C(=O)O)c2ccc(C(=O)NCC3CCCC3)cc21 (stereo unspecified)

— a melting point compilation (Tetko et al.; mined from patent text by program, amines drawn as free bases though some values may be those of a salt)
